Results published in article PMC8326056 (Journal of Animal Science, 2021).
Structures can show the parent of a compound that is named as a salt.

Assays:
[1] = tested on: bovine i.m. adipose tissue; assay: Lipolysis: glycerol release, i.m. adipose tissue explants; assay type: cell-based, bovine (Angus cross steers); details: 30 min; for Effect on glycerol release (in words): i.m. adipose tissue; for Glycerol: i.m., mean ± SEM, baseline 48.6 ± 10.3
[2] = tested on: bovine s.c. adipose tissue; assay: Lipolysis: NEFA release, s.c. adipose tissue explants; assay type: cell-based, bovine (Angus cross steers); details: for Effect on NEFA release (in words) / NEFA: 30 min; for NEFA: s.c., mean ± SEM, baseline 0.99 ± 0.40
[3] = tested on: bovine i.m. adipose tissue; assay: cAMP in i.m. adipose tissue explants (Cyclic AMP XP Assay Kit); assay type: cell-based, bovine (Angus cross steers); details: for Effect on cAMP (in words): ligand alone; for Effect on cAMP (in words) / cAMP: 30 min; for cAMP: i.m., mean ± SEM, n = 6 steers, baseline 0.64 ± 0.19
Method: (§1) Fresh s.c. adipose tissue was cut into small pieces (50 to 100 mg, actual weight recorded) and i.m. adipose tissue was dissected from the LM as described previously ([Smith and Crouse, 1984]; [Miller et al., 1988]) and weighed. The s.c. and i.m. adipose samples were incubated according to 3 different sets of experimental conditions. Experiment 1: Small pieces of s.c. and i.m. adipose tissues (50 to 100 mg; 1 to 2 mm thick; [Smith and Prior, 1981]) were preincubated in 6-well tissue culture plates in a CO2/O2 incubator (NuAire model 4750 CO2 incubator, Plymouth, MN) for 30 min at 37 °C, 5% CO2 in KHB plus 5 mM glucose, 10 mM HEPES, and 0.5 mM theophylline. […] Experiment 2: The s.c. and i.m. adipose samples were preincubated in KHB plus 5 mM glucose, 10 mM HEPES, and 0.5 mM theophylline in the presence or absence of either 10 µM L-748,337 (β 3-AR antagonist) or 50 µM PRO (β-AR pan-antagonist). […] After the 30 min preincubation, either DOB (β 1-AA) or SAL (β 2-AA) was added to the culture plate wells in a concentration-dependent manner (10^–9 to 10^–4 M) for an additional 30 min. For all experiments, there were at least 3 replicate wells per treatment condition. After a total of 1-hr incubation, the adipose samples were homogenized in 1 mL cell lysis buffer (Cell Signaling Technology, Danvers, MA) with 1 mM phenymethylsulfony fluoride, and centrifuged at 14,000 × g for 30 min to remove tissue debris. The supernatant fractions were stored at −80 °C until subsequent analyses were performed.
(§2) The concentration of cAMP was determined based on the principle of competitive binding using the Cyclic AMP XP Assay Kit according to the manufacturer’s instructions. Cytosolic extracts from the adipose explants were co-incubated at room temperature for 3 hr in 96-well plates with the HRP-linked cAMP substrate coated onto an immobilized rabbit monoclonal cAMP antibody using a horizontal orbital plate shaker. After the reaction, color development was measured at 450 nm using an Epoch microplate reader (Biotek Instruments, Winooski, VT). All samples were analyzed in duplicate. A standard curve and cAMP concentrations were calculated using GrapPad Prism 6.04 software (GraphPad Software Inc., San Diego, CA).

[4] = target: T1, bovine β 3-AR (Bos taurus, UniProt P46626); assay: cAMP induction in CHO cells transfected with bovine β 3-AR construct (LANCE cAMP kit); assay type: cell-based; details: 45 min, 5 mM theophylline
T1 construct: expressed in transfected cells; host or cells: Chinese hamster ovary (CHO) cells, pcDNA3.1+ vector
Method: (§3) Chinese Hamster Overy cells were transfected with either the bovine β 1-, β 2-, or β 3-AR constructs in pcDNA3.1+. Expression of the β-AR was confirmed by polymerase chain reaction (PCR). Thereafter, cells were grown in DMEM/Ham’s F12 media with 10% FBS and 1% penicillin/streptomycin at 37 °C under 5% CO2. Opti-plates (Perkin Elmer, Waltham, MA) were used for all experiments. For each experiment, cells were plated into 96-well tissue culture plates at 60,000 cells per well in a volume of 100 µL media. Cells were grown for 48 hr after plating prior to ligand addition and determination of cAMP.
(§4) All samples and standards were tested in duplicate for each repetition, and 4 repetitions per cell line were performed for each potential ligand tested. Controls included no treatment (media alone), 5 mM theophylline alone (an inhibitor of phosphodiesterase), 0.1 % DMSO alone, and water alone. None of the controls differed from media alone and are thus not reported. A volume of media equal to the volume of test material to be added was removed from the well just prior to stimulation. Theophylline was added in a volume of 25 µL to obtain a final concentration of 5 mM and each test molecule was delivered in 10 µL. Cells were returned to 37 °C and allowed to incubate for 45 min before media was removed and the cells lysed in 38 µL lysis buffer A. The LANCE cAMP detection kit (AD0262E) was purchased from Perkin Elmer. The LANCE assay instructions were followed for a 40 µL reaction volume with 15 µL of cell lysate. The reaction was incubated for 20 hr prior to measuring fluorescence. A standard curve was generated with increasing concentrations of cAMP, and the linear portion of the curve was used to calculate sample cAMP concentrations.

[5] = target: T2, bovine β 1-AR (Bos taurus, UniProt Q9TT96); assay: cAMP induction in CHO cells transfected with bovine β 1-AR construct (LANCE cAMP kit); assay type: cell-based; details: 45 min, 5 mM theophylline, ND = cAMP not detected or insufficient for EC50
T2 construct: expressed in transfected cells; host or cells: Chinese hamster ovary (CHO) cells, pcDNA3.1+ vector
Method: as §3, §4

[6] = tested on: bovine s.c. adipose tissue; assay: Lipolysis: glycerol release, s.c. adipose tissue explants; assay type: cell-based, bovine (Angus cross steers); details: for Glycerol: s.c., mean ± SEM, baseline 50.0 ± 12.8
[7] = tested on: bovine s.c. adipose tissue; assay: cAMP in s.c. adipose tissue explants (Cyclic AMP XP Assay Kit); assay type: cell-based, bovine (Angus cross steers); details: for Effect on cAMP (in words): ligand alone; for Effect on cAMP (in words) / cAMP: 30 min; for cAMP: n = 6 steers, baseline 0.42 ± 0.06
Method: as §1, §2

[8] = tested on: bovine i.m. adipose tissue; assay: Lipolysis: NEFA release, i.m. adipose tissue explants; assay type: cell-based, bovine (Angus cross steers); details: 30 min; for Effect on NEFA release (in words): i.m. adipose tissue; for NEFA: i.m., mean ± SEM, baseline 0.65 ± 0.20
[9] = s.c., 10^–6 M ligand, mean ± SEM
[10] = s.c., 10^–7 M ligand, mean ± SEM
[11] = s.c., 10^–8 M ligand, mean ± SEM
[12] = Bos taurus, sc, 0.5 h, s.c. adipose tissue, 30 min at 37 °C, n = 5

T2 sequence (Q9TT96 whole entry): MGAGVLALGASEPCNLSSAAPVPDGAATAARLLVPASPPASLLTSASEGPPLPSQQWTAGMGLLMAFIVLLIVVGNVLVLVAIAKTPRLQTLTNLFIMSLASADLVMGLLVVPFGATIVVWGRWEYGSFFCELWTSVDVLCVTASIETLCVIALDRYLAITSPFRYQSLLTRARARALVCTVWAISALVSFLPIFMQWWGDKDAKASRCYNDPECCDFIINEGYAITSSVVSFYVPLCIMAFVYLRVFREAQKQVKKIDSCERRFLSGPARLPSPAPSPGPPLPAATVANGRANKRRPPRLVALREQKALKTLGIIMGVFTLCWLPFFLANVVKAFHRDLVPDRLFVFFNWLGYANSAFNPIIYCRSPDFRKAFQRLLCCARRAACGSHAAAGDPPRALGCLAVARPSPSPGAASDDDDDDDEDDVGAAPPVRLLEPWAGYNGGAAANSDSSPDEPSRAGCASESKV
T1 sequence (P46626 whole entry): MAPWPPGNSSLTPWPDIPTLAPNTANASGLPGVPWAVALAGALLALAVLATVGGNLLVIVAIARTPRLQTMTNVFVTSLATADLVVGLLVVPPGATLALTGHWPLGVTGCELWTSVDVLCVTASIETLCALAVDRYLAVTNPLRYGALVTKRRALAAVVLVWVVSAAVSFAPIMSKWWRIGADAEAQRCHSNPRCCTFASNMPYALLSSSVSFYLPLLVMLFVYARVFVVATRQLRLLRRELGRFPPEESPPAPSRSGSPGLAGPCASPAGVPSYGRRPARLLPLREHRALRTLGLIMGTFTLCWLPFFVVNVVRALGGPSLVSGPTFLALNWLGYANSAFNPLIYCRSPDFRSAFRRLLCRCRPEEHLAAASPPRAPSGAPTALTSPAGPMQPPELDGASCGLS

SMILES | Effect on glycerol release (in words) [1] | Glycerol ([1]; 10^–6 M ligand) [nmol/100 mg tissue] | Glycerol ([1]; 10^–7 M ligand) [nmol/100 mg tissue] | Glycerol ([1]; 10^–8 M ligand) [nmol/100 mg tissue] | Effect on NEFA release (in words) ([2]; s.c. adipose tissue) | NEFA ([2]; 10^–6 M ligand) [µmol/100 mg tissue] | NEFA ([2]; 10^–7 M ligand) [µmol/100 mg tissue] | NEFA ([2]; 10^–8 M ligand) [µmol/100 mg tissue] | Effect on cAMP (in words) ([3]; i.m. adipose tissue) | cAMP ([3]; 10^–6 M ligand) [pmol/100 mg tissue] | cAMP ([3]; 10^–7 M ligand) [pmol/100 mg tissue] | cAMP ([3]; 10^–8 M ligand) [pmol/100 mg tissue] | EC50 [4] [µM] | Glycerol ([6]; 10^–6 M ligand, 30 min) [nmol/100 mg tissue] | Glycerol ([6]; 10^–7 M ligand, 30 min) [nmol/100 mg tissue] | Glycerol ([6]; 10^–8 M ligand, 30 min) [nmol/100 mg tissue] | Effect on cAMP (in words) ([7]; s.c. adipose tissue) | cAMP [7, 9] [pmol/100 mg tissue] | cAMP [7, 10] [pmol/100 mg tissue] | Effect on NEFA release (in words) [8] | also measured
CC(CCc1ccc(O)cc1)NCC(O)c1ccc(O)cc1.Cl (racemic) [RAC, ractopamine hydrochloride] | Neither RAC nor ZIL affected cAMP production or glycerol or NEFA release | 42.6 ± 11.4 | 81.7 ± 25.5 | 52.4 ± 16.4 | Neither RAC nor ZIL affected cAMP production or glycerol or NEFA release | 1.06 ± 0.13 | 1.20 ± 0.21 | 1.10 ± 0.15 | Neither RAC nor ZIL (10^–8 to 10^–6 M) affected cAMP concentrations | 0.70 ± 0.18 | 0.76 ± 0.18 | 0.86 ± 0.22 | 0.024 | 63.3 ± 9.20 | 52.6 ± 11.1 | 50.3 ± 7.60 | Neither RAC nor ZIL (10^–8 to 10^–6 M) affected cAMP concentrations | 0.44 ± 0.14 | 0.38 ± 0.08 | Neither RAC nor ZIL affected cAMP production or glycerol or NEFA release | EC50 [5]: 0.002 µM; cAMP [7, 11]: 0.39 ± 0.09 pmol/100 mg tissue; NEFA ([8]; 10^–6 M ligand): 0.56 ± 0.13 µmol/100 mg tissue; NEFA ([8]; 10^–7 M ligand): 1.18 ± 0.50 µmol/100 mg tissue; NEFA ([8]; 10^–8 M ligand): 0.75 ± 0.21 µmol/100 mg tissue
CC(C)N[C@@H]1CCn2c(=O)[nH]c3cccc(c32)[C@H]1O (racemic) [ZIL, zilpaterol hydrochloride] | Neither RAC nor ZIL affected cAMP production or glycerol or NEFA release | 46.0 ± 14.5 | 48.6 ± 13.7 | 67.4 ± 21.6 | Neither RAC nor ZIL affected cAMP production or glycerol or NEFA release | 1.17 ± 0.35 | 1.25 ± 0.31 | 1.06 ± 0.30 | Neither RAC nor ZIL (10^–8 to 10^–6 M) affected cAMP concentrations | 0.78 ± 0.39 | 0.51 ± 0.13 | 0.79 ± 0.30 | 9.1 | 65.9 ± 12.6 | 59.3 ± 15.4 | 54.8 ± 8.0 | Neither RAC nor ZIL (10^–8 to 10^–6 M) affected cAMP concentrations | 0.62 ± 0.27 | 0.61 ± 0.27 | Neither RAC nor ZIL affected cAMP production or glycerol or NEFA release | Induction of cAMP (EC50), β 1-Construct [5]: no detectible cAMP response; cAMP [7, 11]: 0.76 ± 0.37 pmol/100 mg tissue; NEFA ([8]; 10^–6 M ligand): 0.50 ± 0.16 µmol/100 mg tissue; NEFA ([8]; 10^–7 M ligand): 0.91 ± 0.30 µmol/100 mg tissue; NEFA ([8]; 10^–8 M ligand): 0.78 ± 0.28 µmol/100 mg tissue
C[C@H](Cc1ccc(OCC(=O)O)cc1)NC[C@H](O)c1cccc(Cl)c1 [BRL-37344] |  |  |  |  | Neither BRL-37344 nor LUB influenced cAMP or NEFA concentrations |  |  |  |  |  |  |  |  |  |  |  | Neither BRL-37344 nor LUB influenced cAMP or NEFA concentrations |  |  | not influenced | cAMP concentration compared with explants treated with the same concentrations of LUB ([3]; i.m. adipose tissue, 10^–6 and 10^–5 M, P < 0.05): significantly less; Adipose tissue lipolytic sensitivity (−logEC50) to β-AR ligands, s.c. ([7]; s.c., cAMP readout, mean ± SEM, n = 12 cattle, combinations: preincubation with 1 µM LUB ± 10 µM L-748,337): 7.00 ± 3.27
CC(CCc1ccc(O)cc1)NCCc1ccc(O)c(O)c1 (stereo not drawn) [DOB, dobutamine hydrochloride] |  |  |  |  |  |  |  |  | without effect in i.m. adipose tissue |  |  |  |  |  |  |  | increased cAMP production in s.c. adipose tissue in a dose-dependent manner |  |  |  | 
CC(C)NCC(O)c1ccc(O)c(O)c1 (stereo not drawn) [ISO, isoproterenol hydrochloride] | had no effect |  |  |  | increased NEFA release in a dose-dependent manner |  |  |  | not dose-dependent |  |  |  |  |  |  |  | increased cAMP accumulation |  |  | failed to elicit a similar response curve | EC50 [2, 12]: 0.18 µM; EC50 [6, 12]: 5.1 µM; Effect on glycerol release (in words) ([6]; s.c. adipose tissue, 30 min): increased glycerol release in a concentration-dependent manner; EC50 ([7]; Bos taurus, sc, 0.5 h, s.c. adipose tissue, 30 min at 37 °C, n = 5, read-out: EC50, cAMP accumulation): 0.22 µM; Concentration at which the cAMP response plateaus ([7]; s.c. adipose tissue): 10^–6 M
CC(C)(C)NCC(O)c1ccc(O)c(CO)c1 (stereo not drawn) [SAL, salbutamol sulfate] |  |  |  |  |  |  |  |  | without effect in i.m. adipose tissue |  |  |  |  |  |  |  | increased cAMP production in s.c. adipose tissue in a dose-dependent manner |  |  |  | 
